# Assay results: patent US10918599B2, “Serum-stable compositions and methods for light-triggered release of materials” (priority 2015, dated 2021)
# Legend:
# MIA Paca-2 tumors [1] = settings: mice, single dose; cited from earlier work
# MIA Paca-2 tumors [2] = assay: Survival study, phototreatment efficacy (Example 1); assay type: in vivo
# Experimental: Survival study. 5×10^6 MIA Paca-2 cells (obtained from ATTC) were injected in the right flank female nude mice mice (5 weeks, Jackson Labs, #007850). […] N=5-6. Dose for Dox-PoP is 7 mg/kg for Dox and the dose of PoP was adjusted to be equivalent to that of Dox-PoP 7 mg/kg (Dox to lipid loading ratio 1:5), which is 1.225 mg/kg (1.21 μmol/kg Pyro-phospholipid). […] 21 mg/kg of sterically stabilized liposomal Dox (HSPC:CHOL:DSPE-PEG-2K=56.3:38.4:5.3% mole) was used for standard treatment of Doxil®. Free Dox 7 mg/kg was used as a free drug control. 1 h after intravenous injection, tumors that need laser treatment were all irradiated at a fluence rate of 300 W/cm^2 for 16 min 40 s (total fluence 300 J/cm^2). HPPH was diluted in PBS containing 2% ethanol and 0.2% Tween 80 and injected at a dose of 1.21 μmol/kg. Light treatment was performed 24 h post injection. Tumor size was monitored 2-3 times per week and tumor volumes were estimated by measuring three tumor dimensions using a caliper and the ellipsoid formula: Volume=π·L·W·H/6, where L, W and H are the length, width and height of the tumor, respectively. The weights of the mice were monitored every week. MIA PaCa-2 mice were sacrificed when the volume exceeded 10 times of its initial volume.
# For Kaplan-Meier survival curve, each pair of group were compared by Log-rank (Mantel-Cox) test. […]
# [3] = mice; cited from earlier work
molecule,measurement,setting,value
"COc1cccc2c1C(=O)c1c(O)c3c(c(O)c1C2=O)C[C@@](O)(C(=O)CO)C[C@@H]3O[C@H]1C[C@H](N)[C@H](O)[C@H](C)O1 [Free Dox, Doxorubicin]",maximum tolerated dose,MIA Paca-2 tumors [1],7 mg/kg
same,median survival,"MIA Paca-2 tumors [2]; 7 mg/kg, single dose, no laser",19 days
HPPH,median survival,"MIA Paca-2 tumors [2]; conventional PDT, 1.21 μmol/kg, light 24 h post injection, 300 J/cm^2",38 days
C=CC1=C(C)c2cc3[nH]c(c4c5nc(cc6[nH]c(cc1n2)c(C)c6CC)C(C)=C5C(=O)C4)C(CCC(=O)OC(COC(=O)CCCCCCCCCCCCCCC)COP(=O)([O-])OCC[N+](C)(C)C)C3C (stereo not shown) [Pyro-phospholipid],well-tolerated intravenous dose,[3],≤ 1000 mg/kg
